Data as given in US10501479B2, “Benzenesulfonyl-asymmetric ureas and medical uses thereof” (HELSINN HEALTHCARE SA, priority 2016, dated 2019).

The molecules below were run against T1, GHSR-1a (HEK293/GHSR1a cell line) (Homo sapiens, UniProt Q92847) (assay: Ghrelin antagonist potency (IC50) with calcium FLIPR assay, ghrelin 10 nM). Details: HEK293/GHSR1a, ghrelin 10 nM, read-out: Activity IC50 (ghrelin antagonist potency).
T1 construct: expressed in transfected cells; host or cells: HEK293/GHSR1a cell line
Type: cell-based
Protocol: Evaluation of Ghrelin Agonist (EC50) and Antagonist Potency (IC50) with Calcium FLIPR Assay:
The intracellular calcium assay was carried out in a 384-well format FLIPR™ (Molecular Device) HEK293/GHSR1a cell line. Cells were seeded 24 hr prior to the experiments at an optimal density per well. Preincubation with selected calcium dye lasted for 30-60 min at room temperature or 37° C. Test compounds, dissolved in DMSO, were added at the appropriate time and incubated for 15 min followed by the addition of ghrelin with FlexStation or FLIPR. Relative fluorescence was monitored by the FLIPR™ Molecular Device. EC50 and IC50 values were estimated from dose-response data using GraphPad Prism software. To check for GHSR-1a agonism, the compound was added at t=20 sec. and the calcium response was followed for 2 minutes. To check for GHSR-1a antagonism, the compound and Ghrelin (10 nM) were added to the cells at t=20 sec. and the calcium response was measured for 2 minutes. The potency of the antagonist was calculated by its ability to reduce the ghrelin response. Dose-response curves were made for relevant antagonists.

T1 sequence (Q92847 whole entry): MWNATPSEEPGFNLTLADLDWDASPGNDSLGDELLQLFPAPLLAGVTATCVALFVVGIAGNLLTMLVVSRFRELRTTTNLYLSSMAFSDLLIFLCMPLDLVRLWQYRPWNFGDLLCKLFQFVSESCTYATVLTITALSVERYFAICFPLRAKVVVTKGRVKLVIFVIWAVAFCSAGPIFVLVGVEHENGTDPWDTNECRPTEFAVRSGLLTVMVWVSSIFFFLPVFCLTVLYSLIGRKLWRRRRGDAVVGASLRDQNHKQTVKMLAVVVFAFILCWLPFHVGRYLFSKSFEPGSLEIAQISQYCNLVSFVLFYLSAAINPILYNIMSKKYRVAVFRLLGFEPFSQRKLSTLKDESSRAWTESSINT

IC50 [µM] | SMILES
0.0231 | COc1ccc(C(C)NC(=O)Nc2ccc3c(c2)CC(c2ccc4c(c2)CNC4)S3(=O)=O)cc1 (centres unmarked) [H1297, 1-(2-(isoindolin-5-yl)-1,1-dioxido-2,3-dihydrobenzo[b]thiophen-5-yl)-3-(1-(4-methoxyphenyl)ethyl)urea]

Same assay, conditions: ghrelin antagonist potency, read-out: IC50 (Activity)

SMILES | IC50 [µM]
CC(=O)N(C)S(=O)(=O)c1ccc(NC(=O)N[C@@H](C)c2ccc(-c3cnccn3)c(Cl)c2Cl)cc1 [H0954, (S)-N-((4-(3-(1-(2,3-dichloro-4-(pyrazin-2-yl)phenyl)ethyl)ureido)phenyl)sulfonyl)-N-methylacetamide] | > 30
COc1ccc([C@H](C)NC(=O)Nc2ccc(S(=O)(=O)Nc3ccc4c(c3)CCN(S(C)(=O)=O)C4)cc2)c(Cl)c1Cl [H1033, (S)-4-(3-(1-(2,3-dichloro-4-methoxyphenyl)ethyl)ureido)-N-(2-(methylsulfonyl)-1,2,3,4-tetrahydroisoquinolin-6-yl)benzenesulfonamide] | 3.02
COc1ccc([C@H](C)NC(=O)Nc2ccc(S(=O)(=O)Nc3ccccc3)cc2)c(Cl)c1Cl [H0950, (S)-4-(3-(1-(2,3-dichloro-4-methoxyphenyl)ethyl)ureido)-N-phenylbenzenesulfonamide] | 20.8
C[C@H](NC(=O)Nc1ccc(S(=O)(=O)CC2CC2)cc1)c1cccc(Cl)c1Cl [H1078, (S)-1-(4-((cyclopropylmethyl)sulfonyl)phenyl)-3-(1-(2,3-dichlorophenyl)ethyl)urea] | 3.58
CCc1ccc(Cl)c(C(=O)NC(=O)Nc2ccc(S(=O)(=O)Cc3ccc(CC(C)(C)N)cc3)cc2)c1 [H1253, N-((4-((4-(2-amino-2-methylpropyl)benzyl)sulfonyl)phenyl)carbamoyl)-2-chloro-5-ethylbenzamide] | 0.0868
COc1cccc(CS(=O)(=O)c2ccc(NC(=O)N[C@@H](C)c3cccc(Cl)c3Cl)cc2)c1 [H1082, (S)-1-(1-(2,3-dichlorophenyl)ethyl)-3-(4-((3-methoxybenzyl)sulfonyl)phenyl)urea] | > 30
COC(=O)c1ccc(NS(=O)(=O)c2ccc(NC(=O)N[C@@H](C)c3cccc(Cl)c3Cl)cc2)cc1 [H1061, methyl (S)-4-((4-(3-(1-(2,3-dichlorophenyl)ethyl)ureido)phenyl)sulfonamido)benzoate] | 2.87
C[C@H](NC(=O)Nc1ccc(S(=O)(=O)CCN2CCOCC2)cc1)c1cccc(Cl)c1Cl [H1096, (S)-1-(1-(2,3-dichlorophenyl)ethyl)-3-(4-((2-morpholinoethyl)sulfonyl)phenyl)urea] | ≥ 30
C[C@H](NC(=O)Nc1ccc(S(=O)(=O)Cc2cccc(O)c2)cc1)c1cccc(Cl)c1Cl [H1084, (S)-1-(1-(2,3-dichlorophenyl)ethyl)-3-(4-((3-hydroxybenzyl)sulfonyl)phenyl)urea] | 3.5
C[C@H](NC(=O)Nc1ccc(S(=O)(=O)Cc2ccc(C(=O)O)cc2)cc1)c1cccc(Cl)c1Cl [H1059] | > 30
C[C@H](NC(=O)Nc1ccc(S(=O)(=O)NCCC2CCNCC2)cc1)c1cccc(Cl)c1Cl [H1052, (S)-4-(3-(1-(2,3-dichlorophenyl)ethyl)ureido)-N-(2-(piperidin-4-yl)ethyl)benzenesulfonamide] | 0.467
COc1ccc([C@H](C)NC(=O)Nc2ccc(S(=O)(=O)Nc3ccc4c(c3)CCCN4)cc2)c(Cl)c1Cl [H1008, (S)-4-(3-(1-(2,3-dichloro-4-methoxyphenyl)ethyl)ureido)-N-(1,2,3,4-tetrahydroquinolin-6-yl)benzenesulfonamide] | 6.38
COc1ccc([C@H](C)NC(=O)Nc2ccc(S(=O)(=O)Nc3ccc4[nH]ccc4c3)cc2)c(Cl)c1Cl [H0990, (S)-4-(3-(1-(2,3-dichloro-4-methoxyphenyl)ethyl)ureido)-N-(1H-indol-5-yl) benzenesulfonamide] | 0.823
COc1ccc([C@H](C)NC(=O)Nc2ccc(S(=O)(=O)Nc3ccc(C)cc3)cc2)c(Cl)c1Cl [H0953, (S)-4-(3-(1-(2,3-dichloro-4-methoxyphenyl)ethyl)ureido)-N-(p-tolyl)benzenesulfonamide] | > 30
C[C@H](NC(=O)Nc1ccc(S(=O)(=O)C(C)(C)c2ccc3c(c2)CCNC3)cc1)c1cccc(Cl)c1Cl [H1081, (S)-1-(1-(2,3-dichlorophenyl)ethyl)-3-(4-((2-(1,2,3,4-tetrahydroisoquinolin-6-yl)propan-2-yl)sulfonyl)phenyl)urea] | 1.24
COC(=O)Cc1ccc(NS(=O)(=O)c2ccc(NC(=O)N[C@@H](C)c3cccc(Cl)c3Cl)cc2)cc1 [H1075, methyl (S)-2-(4-((4-(3-(1-(2,3-dichlorophenyl)ethyl)ureido)phenyl)sulfonamido)phenyl)acetate] | 3.02
Cc1ccc(CS(=O)(=O)c2ccc(NC(=O)N[C@@H](C)c3ccc(-c4cnccn4)c(Cl)c3Cl)cc2)cc1 [H0963, (S)-1-(1-(2,3-dichloro-4-(pyrazin-2-yl)phenyl)ethyl)-3-(4-((4-methylbenzyl)sulfonyl)phenyl)urea] | > 30
COC(=O)c1cccc(CS(=O)(=O)c2ccc(NC(=O)N[C@@H](C)c3cccc(Cl)c3Cl)cc2)c1 [H1087, methyl (S)-3-(((4-(3-(1-(2,3-dichlorophenyl)ethyl)ureido)phenyl)sulfonyl)methyl)benzoate] | 8.18
C[C@H](NC(=O)Nc1ccc(S(=O)(=O)Nc2ccc(CCO)cc2)cc1)c1ccccc1Cl [H1095, (S)-4-(3-(1-(2-chlorophenyl)ethyl)ureido)-N-(4-(2-hydroxyethyl)phenyl) benzenesulfonamide] | 1.43
COC(=O)c1ccc(CS(=O)(=O)c2ccc(NC(=O)N[C@@H](C)c3cccc(Cl)c3Cl)cc2)cc1 [H1058, methyl (S)-4-(((4-(3-(1-(2,3-dichlorophenyl)ethyl)ureido)phenyl)sulfonyl)methyl)benzoate] | 20

The remaining lines, values ahead:

IC50 [µM] | SMILES
4.35 | CC(NC(=O)N(C)c1ccc(S(=O)(=O)Cc2ccc3c(c2)CNC3)cc1)c1ccccc1 (centres unmarked) [H1213, 1-(4-((isoindolin-5-ylmethyl)sulfonyl)phenyl)-1-methyl-3-(1-phenylethyl)urea]
≥ 30 | C[C@H](NC(=O)Nc1ccc(S(=O)(=O)Cc2ccc(C#N)cc2)cc1)c1cccc(Cl)c1Cl [H1101, (S)-1-(4-((4-cyanobenzyl)sulfonyl)phenyl)-3-(1-(2,3-dichlorophenyl)ethyl)urea]
0.95 | C[C@H](NC(=O)Nc1ccc(S(=O)(=O)Nc2ccc(-c3ncc[nH]3)cc2)cc1)c1cccc(Cl)c1Cl [H1110, (S)-N-(4-(1H-imidazol-2-yl)phenyl)-4-(3-(1-(2,3-dichlorophenyl)ethyl)ureido) benzenesulfonamide]
6.4 | CN1Cc2ccc(CS(=O)(=O)c3ccc(NC(=O)NCC4CC4)cc3)cc2C1 [H1230, 1-(cyclopropylmethyl)-3-(4-(((2-methylisoindolin-5-yl)methyl)sulfonyl)phenyl)urea]
> 30 | O=C(NCc1cncs1)Nc1ccc(S(=O)(=O)Cc2ccc3c(c2)CNC3)cc1 [H1208, 1-(4-((isoindolin-5-ylmethyl)sulfonyl)phenyl)-3-(thiazol-5-ylmethyl)urea]
> 30 | CC(NC(=O)Nc1ccc(S(=O)(=O)C(C)(C)c2ccc3c(c2)CN(Cc2ccccc2)C3)cc1)c1ccccc1 (centres unmarked) [H1231, 1-(4-((2-(2-benzylisoindolin-5-yl)propan-2-yl)sulfonyl)phenyl)-3-(1-phenylethyl)urea]
≥ 30 | COc1ccc(C(C)NC(=O)Nc2ccc(S(=O)(=O)Nc3ccc(CO)cc3)cc2)c2ccccc12 (centres unmarked) [H1145, N-(4-(hydroxymethyl)phenyl)-4-(3-(1-(4-methoxynaphthalen-1-yl)ethyl)ureido) benzenesulfonamide]
> 30 | C[C@H](NC(=O)Nc1ccc(S(=O)(=O)NC2CCN(C)CC2)cc1)c1ccccc1 [H1239, (S)-N-(1-methylpiperidin-4-yl)-4-(3-(1-phenylethyl)ureido) benzenesulfonamide]
> 30 | C[C@H](NC(=O)Nc1ccc(S(=O)(=O)C2CCN(C)CC2)cc1)c1ccccc1 [H1237, (S)-1-(4-((1-methylpiperidin-4-yl)sulfonyl)phenyl)-3-(1-phenylethyl)urea]
0.539 | C[C@H](NC(=O)N(O)c1ccc(S(=O)(=O)Nc2ccc3c(c2)CNC3)cc1)c1cccc(Cl)c1Cl [H1188, (S)-4-(3-(1-(2,3-dichlorophenyl)ethyl)-1-hydroxyureido)-N-(isoindolin-5-yl)benzenesulfonamide]
≥ 30 | COc1ccc(C(C)NC(=O)Nc2ccc(S(=O)(=O)Cc3ccc(CO)cc3)cc2)c2ccccc12 (centres unmarked) [H1140, 1-(4-((4-(hydroxymethyl)benzyl)sulfonyl)phenyl)-3-(1-(4-methoxynaphthalen-1-yl)ethyl)urea]
> 30 | C[C@H](NC(=O)Nc1ccc(S(=O)(=O)CC2CCN(C)CC2)cc1)c1ccccc1 [H1238, (S)-1-(4-(((1-methylpiperidin-4-yl)methyl)sulfonyl)phenyl)-3-(1-phenylethyl)urea]
0.44 | CCOc1ccc(Cl)c(C(=O)NC(=O)Nc2ccc(S(=O)(=O)Nc3ccc4c(c3)CNC4)cc2)c1 [H1252, 2-chloro-5-ethoxy-N-((4-(N-(isoindolin-5-yl)sulfamoyl)phenyl)carbamoyl) benzamide]
3.16 | C[C@H](NC(=O)Nc1ccc(S(=O)(=O)Cc2ccc(CO)cc2)cc1)c1ccccc1 [H1222, (S)-1-(4-((4-(hydroxymethyl)benzyl)sulfonyl)phenyl)-3-(1-phenylethyl)urea]
